Columns and labels:
murine intestinal crypts = assay: Small intestinal crypt organoid culture ex vivo, replacement of Rspo1; assay type: cell-based; details: FIG. 5
Method: Small intestinal crypt organoid culture was performed using murine intestinal crypts essentially as described by Ootani et al (Nature Medicine; online publication doi:10.1038/nm.1951, 27 Apr. 2009)), and see also Sato et al (Nature Letters doi:10.1038/nature07935, 2009), both incorporated by reference herein in their entireties.

[1] = test system: C57BL/6 mice exposed to whole body irradiation (RIGS); assay: Survival (Kaplan-Meier) of mice after lethal whole body irradiation; assay type: in vivo; details: 10.4 Gy WBI; AdRspo1 5×10^9 particles/mice 1 hr and 48 hr post-IR, then ICG-001 150 mg/kg 72 hr post-IR; p<0.003
Method: C57BL/6 mice were treated with recombinant adenovirus expressing human Rspo1, AdRspo1 (5×10^9 particles/mice, 1 hr and 48 hr post-IR), followed by ICG-001 (150 mg/kg of body weight, 72 hr post-IR) after whole body irradiation (WBI) of 9.4-10.4 Gy. […] Expression of mRNA levels of β-Catenin target genes in crypt cells was determined by qRT-PCR.
To examine whether the purified recombinant hRspo1 could mitigate RIGS when administered along with ICG001, we treated C57BL/6 mice after 10.4 Gy of WBI with the combination of recombinant hRspo1+ICG-001. Specifically, C57BL/6 mice (n=10), exposed to 10.4 Gy single fraction WBI, were treated with hRspo1 (20 mg/kg of body weight s.c.) at 24 hr and 48 hr post-WBI. A separate cohort received sequential treatment of hRspo1 (24 hr and 48 hr post WBI) followed by ICG-001 (150 mg/kg of body weight, 72 hr post-IR).

[2] = test system: asymmetric divisions in mitotic cells of the ventricular zone; assay: In vivo Par3 distribution assay of asymmetric versus symmetric divisions; set-up: species or system mice; details: for number of asymmetric divisions: topical or oral administration to pregnant mice, compared to vehicle control
From the text: For example, Bultje et al. (Bultje R Neuron 63, 189-202, 2009) describe an assay to measure asymmetric distributions in the ventricular zone (vz) to evaluate asymmetric divisions during neurogenesis. Essentially this involves treating the animal (either adult or in utero) for a set period of time with compounds (either p.o., s.c., i.v. or topically) with compounds and then sacrificing the animal and examining the Par3 distribution (e.g., via immunohistochemistry) in mitotic cells vs. DNA distribution (e.g., using DAPI staining) Par3 distributes equally among the two daughter cells during symmetric division and unequally (essentially all in one daughter cell) during asymmetric differentiation.

[3] = test system: mouse intestinal organoids; assay: Intestinal organoid growth/maintenance assay; assay type: cell-based
Method: The recombinant human Rspo1 was also tested in an intestinal organoid growth/maintenance test. Self-renewal of the small intestinal and colonic epithelium is driven by the proliferation of stem cells and their progenitors; and their maintenance and growth in culture (ex-vivo) requires the activation of the Wnt pathway. Given that it is essential, only functional Rspo1 will be able to maintain the growth of intestinal organoids and lead to their maintenance and proliferation. FIGS. 12A and 12B show, according to particular exemplary aspects, testing of functionality of recombinant human Rspo1 in an intestinal organoid growth/maintenance assay.
Organoids were generated by culturing purified small intestinal crypts in matrigel in Advanced DMEM/F12 supplemented with 500 ng/ml R-spondin 1 [commercial (FIG. 12A) or recombinant (FIG. 12B)], 100 ng/ml EGF and 100 ng/ml Noggin.

[4] = test system: Wnt pathway in 293T cells; assay: TopFlash luciferase β-catenin activation test; assay type: cell-based; details: 24 hours in 1% FCS, alone and with Wnt3A, versus commercial Rspo1 from R&D biosystems
Method: The recombinant cDNA used was SEQ ID NO:11, encoding for recombinant human Rspo1 (SEQ ID NO:12, with StrepII tag). Activity of the purified recombinant Rspo1 was assayed using a β-catenin activation test.
Briefly, 293T cells were transfected with the reporter vector TopFlash, along with TK Renilla (transfection control) using lipofectamine 2000. After the transfection mixture was removed, cells were incubated in 0.1% FCS o/n, and then stimulated with the different inducers at the indicated concentrations in 1% FCS for 24 hours (FIG. 11).

Molecule: O=c1cc(-c2ccccc2)oc2ccc3ccccc3c12 [beta napthoflavone]
- replacement of Rspo1 for maintenance of small intestinal crypt organoid cultures (murine intestinal crypts): can be used to replace (for at least up to 4 days) Rspo1

Molecule: Cc1c[nH]c(-c2cnc(NCCNc3ccc(C#N)cn3)nc2-c2ccc(Cl)cc2Cl)n1 [CHIR]
- replacement of Rspo1 for maintenance of small intestinal crypt organoid cultures (murine intestinal crypts): can be used to replace (for at least up to 4 days) Rspo1

Molecule: O=C1[C@H](Cc2ccc(O)cc2)N2C(=O)CCN(C(=O)NCc3ccccc3)[C@H]2CN1Cc1cccc2ccccc12 [ICG-001]
- mice rescued from radiation lethality [1]: 60%
- number of asymmetric divisions [2]: does not affect the number of asymmetric divisions
- effect on the defect in asymmetric divisions caused by IQ-1 ([2]; treatment with excess ICG-001): corrects the defect in asymmetric divisions caused by IQ-1

Molecule: [Cl-].[Li+] [LiCl]
- replacement of Rspo1 for maintenance of small intestinal crypt organoid cultures (murine intestinal crypts): can be used to replace (for at least up to 4 days) Rspo1

Molecule: CC(=O)c1ccc(N=NC(C(N)=O)=C2NC(C)(C)Cc3ccccc32)cc1 [IQ-1, reference compound]
- number of symmetric divisions ([2]; pregnant mice): increases the number of symmetric divisions
- number of asymmetric divisions [2]: decreases the number of asymmetric divisions

B1: recombinant human Rspo1: purified recombinant human R-spondin1, SEQ ID NO:12, with StrepII tag at the c-terminal end (protein)
chain: MRLGLCVVALVLSWTHLTISSRGIKGKRQRRISAEGSQACAKGCELCSEVNGCLKCSPKLFILLERNDIRQVGVCLPSCPPGYFDARNPDMNKCIKCKIEHCEACFSHNFCTKCKEGLYLHKGRCYPACPEGSSAANGTMECSSPAQCEMSEWSPWGPCSKKQQLCGFRRGSEERTRRVLHAPVGDHAACSDTKETRRCTVRRVPCPEGQKRRKGGQGRRENANRNLARKESKEAGAGSRRRKGQQQQQQQGTVGPLTSAGPAESAWSHPQFEK
modifications: C-terminal StrepII tag; human Rspo1 protein variant with SrepII tag (ESAWSHPQFEK) at c-terminus
- ability to maintain and induce sprouting (proliferation) of the organoids, versus commercial protein ([3]; 500 ng/ml R-spondin 1): identical to the commercial protein
- maintenance of growth and proliferation of intestinal organoids ([3]; 500 ng/ml R-spondin 1, 100 ng/ml EGF, 100 ng/ml Noggin, matrigel): capable of maintaining the growth and proliferation of mouse intestinal organoids in culture
- activation of β-catenin (TopFlash luciferase) [4]: capable of activating β-catenin by itself and synergizing with Wnt (e.g., Wnt3A) as well as, if not better, than the commercially obtained Rspo1

Reference: patent publication US20160074400A1, “WNT MODULATORS FOR THE PROTECTION, MITIGATION AND TREATMENT OF RADIATION INJURY” (University of Southern California, priority 2012, published 2016)
